Results published in patent US11254668B2, “Pyrazolo[1,5-A]pyrazin-4-yl and related derivatives” (Pfizer Inc., priority 2017, dated 2022).

What was measured:
Format in all cases: biochemical
[1] = target: JAK2 (Homo sapiens (Human), UniProt O60674); assay: JAK Caliper Enzyme Assay at 1 mM ATP, JAK2
Summary of the method: (§1)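 First, compound was incubated at room temperature with recombinant human kinase domain, a synthetic peptide and 1 mM ATP until 20–30% of peptide was phosphorylated. Next, EDTA stopped the reaction. Finally, electrophoretic separation quantified product, and percent effect relative to controls was plotted against concentration.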

[2] = target: TYK2 (Homo sapiens (Human), UniProt P29597); assay: JAK Caliper Enzyme Assay at 1 mM ATP, TYK2
Sequence of TYK2 (P29597 897-1176): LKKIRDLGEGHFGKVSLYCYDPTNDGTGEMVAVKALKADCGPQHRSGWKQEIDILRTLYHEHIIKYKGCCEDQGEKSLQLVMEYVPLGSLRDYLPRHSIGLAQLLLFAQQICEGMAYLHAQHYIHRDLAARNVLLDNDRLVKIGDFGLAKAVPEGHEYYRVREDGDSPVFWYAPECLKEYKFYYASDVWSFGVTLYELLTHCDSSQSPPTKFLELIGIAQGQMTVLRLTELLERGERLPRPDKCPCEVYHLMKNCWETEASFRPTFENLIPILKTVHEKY
Summary of the method: as §1

[3] = target: JAK1 (Homo sapiens (Human), UniProt P23458); assay: JAK Caliper Enzyme Assay at 1 mM ATP, JAK1
Sequence of JAK1 (P23458 875-1153): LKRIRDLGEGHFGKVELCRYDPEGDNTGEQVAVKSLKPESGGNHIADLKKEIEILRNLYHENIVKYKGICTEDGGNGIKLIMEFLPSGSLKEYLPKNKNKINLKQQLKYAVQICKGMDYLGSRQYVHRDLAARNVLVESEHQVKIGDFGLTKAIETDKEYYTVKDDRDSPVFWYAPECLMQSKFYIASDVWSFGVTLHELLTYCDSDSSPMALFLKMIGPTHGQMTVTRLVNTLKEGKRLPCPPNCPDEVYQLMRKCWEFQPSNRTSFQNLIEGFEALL
Summary of the method: (§2)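 IC50 (nM) derived from percent conversion of fluorescently labelled peptide, measured by Caliper LabChip mobility-shift separation after EDTA stop. Each JAK family kinase domain (human, recombinant) run at 1 mM ATP and room temperature, conditions set to 20-30% product; DMSO wells define uninhibited baseline.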

[4] = target: JAK3 (Homo sapiens (Human), UniProt P52333); assay: JAK Caliper Enzyme Assay at 1 mM ATP, JAK3
Sequence of JAK3 (P52333 822-1111): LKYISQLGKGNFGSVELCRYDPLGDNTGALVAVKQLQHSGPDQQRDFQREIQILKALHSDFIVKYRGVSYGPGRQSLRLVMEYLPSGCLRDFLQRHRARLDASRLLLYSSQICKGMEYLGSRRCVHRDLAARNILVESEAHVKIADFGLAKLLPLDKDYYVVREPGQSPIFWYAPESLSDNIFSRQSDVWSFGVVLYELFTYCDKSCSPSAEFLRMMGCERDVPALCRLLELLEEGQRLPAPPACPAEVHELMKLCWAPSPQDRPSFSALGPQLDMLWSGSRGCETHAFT
Summary of the method: as §2

Sequence of JAK2 (O60674 849-1124): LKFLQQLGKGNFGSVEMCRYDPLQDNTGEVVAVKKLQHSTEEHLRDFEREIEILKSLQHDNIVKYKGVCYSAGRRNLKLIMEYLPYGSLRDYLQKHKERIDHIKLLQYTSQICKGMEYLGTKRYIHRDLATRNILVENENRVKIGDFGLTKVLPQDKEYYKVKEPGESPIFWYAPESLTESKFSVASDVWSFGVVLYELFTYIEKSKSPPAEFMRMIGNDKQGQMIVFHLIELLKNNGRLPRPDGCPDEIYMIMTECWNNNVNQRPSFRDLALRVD

Compound | IC50 [1] [nM] | IC50 [2] [nM] | IC50 [3] [nM] | IC50 [4] [nM]
CCN1CC(CC#N)(n2ccc(-c3nc(N4CCCC4)cc4ncccc34)n2)C1 [Example 265, (1-ethyl-3-{3-[7-(pyrrolidin-1-yl)-1,6-naphthyridin-5-yl]-1H-pyrazol-1-yl}azetidin-3-yl)acetonitrile] | > 10000 | 4820 | > 10000 | > 10000
N#CCC1(n2ccc(-c3nc(Oc4cccc(N)n4)cc4ncccc34)n2)CC(C#N)C1 (stereo not drawn) [Example 266, trans-3-(3-{7-[(6-aminopyridin-2-yl)oxy]-1,6-naphthyridin-5-yl}-1H-pyrazol-1-yl)-3-(cyanomethyl)cyclobutanecarbonitrile] | 3320 | 1910 | > 10000 | > 10000
Cc1cc(-c2nc(-c3ccn[nH]3)cc3ncccc23)nn1C1(CC#N)CN(S(C)(=O)=O)C1 [Example 267, [3-{5-methyl-3-[7-(1H-pyrazol-5-yl)-1,6-naphthyridin-5-yl]-1H-pyrazol-1-yl}-1-(methylsulfonyl)azetidin-3-yl]acetonitrile] | 843 | 57 | 2950 | > 10000
Cc1cc(-c2nc(-c3cc[nH]n3)cc3ncccc23)nn1[C@]1(CC#N)C[C@H](C#N)C1 [Example 268, cis-3-(cyanomethyl)-3-{5-methyl-3-[7-(1H-pyrazol-3-yl)-1,6-naphthyridin-5-yl]-1H-pyrazol-1-yl}cyclobutanecarbonitrile] | 33 | 8 | 81 | 7780
Cc1cc(-c2nc(-c3cc[nH]n3)cc3ncccc23)nn1[C@]1(CC#N)C[C@@H](C#N)C1 [Example 269, trans-3-(cyanomethyl)-3-{5-methyl-3-[7-(1H-pyrazol-3-yl)-1,6-naphthyridin-5-yl]-1H-pyrazol-1-yl}cyclobutanecarbonitrile] | 447 | 27 | 1380 | > 10000
Cc1cc(-c2nc(-c3cc(N)n(C)n3)cc3ncccc23)nn1[C@]1(CC#N)C[C@@H](C#N)C1 [Example 270, trans-3-{3-[7-(5-amino-1-methyl-1H-pyrazol-3-yl)-1,6-naphthyridin-5-yl]-5-methyl-1H-pyrazol-1-yl}-3-(cyanomethyl)cyclobutanecarbonitrile] | 574 | 46 | 6900 | > 10000
Cc1cc(-c2nc(-c3cc(N)n(C)n3)cc3ncccc23)nn1[C@]1(CC#N)C[C@H](C#N)C1 [Example 271, cis-3-{3-[7-(5-amino-1-methyl-1H-pyrazol-3-yl)-1,6-naphthyridin-5-yl]-5-methyl-1H-pyrazol-1-yl}-3-(cyanomethyl)cyclobutanecarbonitrile] | 46 | 16 | 429 | 7070
Cc1cc(-c2nc(-c3cn[nH]c3)cc3ncccc23)nn1C1(CC#N)CN(S(C)(=O)=O)C1 [Example 272, [3-{5-methyl-3-[7-(1H-pyrazol-4-yl)-1,6-naphthyridin-5-yl]-1H-pyrazol-1-yl}-1-(methylsulfonyl)azetidin-3-yl]acetonitrile] | 1390 | 120 | 3790 | > 10000
Cc1cc(-c2nc(-c3cn[nH]c3)cc3ncccc23)nn1[C@]1(CC#N)C[C@@H](C#N)C1 [Example 273, trans-3-(cyanomethyl)-3-{5-methyl-3-[7-(1H-pyrazol-4-yl)-1,6-naphthyridin-5-yl]-1H-pyrazol-1-yl}cyclobutanecarbonitrile] | 311 | 49 | 786 | > 10000
Cc1cc(-c2nc(-c3cn[nH]c3)cc3ncccc23)nn1[C@]1(CC#N)C[C@H](C#N)C1 [Example 274, cis-3-(cyanomethyl)-3-{5-methyl-3-[7-(1H-pyrazol-4-yl)-1,6-naphthyridin-5-yl]-1H-pyrazol-1-yl}cyclobutanecarbonitrile] | 34 | 9 | 60 | 3360
Cc1cc(-c2nc(-c3cn[nH]c3N)cc3ncccc23)nn1[C@]1(CC#N)C[C@@H](C#N)C1 [Example 275, trans-3-{3-[7-(5-amino-1H-pyrazol-4-yl)-1,6-naphthyridin-5-yl]-5-methyl-1H-pyrazol-1-yl}-3-(cyanomethyl)cyclobutanecarbonitrile] | 20 | 13 | 38 | 2650
Cc1cn([C@]2(CC#N)C[C@@H](C#N)C2)nc1-c1nc(-c2cn[nH]c2N)cc2ncccc12 [Example 276, trans-3-{3-[7-(5-amino-1H-pyrazol-4-yl)-1,6-naphthyridin-5-yl]-4-methyl-1H-pyrazol-1-yl}-3-(cyanomethyl)cyclobutanecarbonitrile] | 947 | 144 | 3480 | > 10000
Cc1cn([C@]2(CC#N)C[C@H](C#N)C2)nc1-c1nc(-c2cc(N)n(C)n2)cc2ncccc12 [Example 277, cis-3-{3-[7-(5-amino-1-methyl-1H-pyrazol-3-yl)-1,6-naphthyridin-5-yl]-4-methyl-1H-pyrazol-1-yl}-3-(cyanomethyl)cyclobutanecarbonitrile] | 2300 | 675 | > 10000 | > 10000
Cc1cn([C@]2(CC#N)C[C@@H](C#N)C2)nc1-c1nc(-c2cc(N)n(C)n2)cc2ncccc12 [Example 278, trans-3-{3-[7-(5-amino-1-methyl-1H-pyrazol-3-yl)-1,6-naphthyridin-5-yl]-4-methyl-1H-pyrazol-1-yl}-3-(cyanomethyl)cyclobutanecarbonitrile] | 9840 | 1430 | > 10000 | > 10000
Cn1cc(-c2cc3ncccc3c(-n3ccc(C4(CC#N)CN(CC(F)(F)F)C4)n3)n2)cn1 [Example 279, [3-{1-[7-(1-methyl-1H-pyrazol-4-yl)-1,6-naphthyridin-5-yl]-1H-pyrazol-3-yl}-1-(2,2,2-trifluoroethyl)azetidin-3-yl]acetonitrile] | 686 | 194 | 6340 | > 10000
Cn1cc(-c2cc3ncccc3c(-c3cn(C4(CC#N)CN(CC(F)(F)F)C4)nn3)n2)cn1 [Example 280, [3-{4-[7-(1-methyl-1H-pyrazol-4-yl)-1,6-naphthyridin-5-yl]-1H-1,2,3-triazol-1-yl}-1-(2,2,2-trifluoroethyl)azetidin-3-yl]acetonitrile] | 28 | 9 | 182 | 3260
CS(=O)(=O)N1CC(CC#N)(n2ncc(-c3nc(-c4cc[nH]n4)cc4ncccc34)n2)C1 [Example 281, [1-(methylsulfonyl)-3-{4-[7-(1H-pyrazol-3-yl)-1,6-naphthyridin-5-yl]-2H-1,2,3-triazol-2-yl}azetidin-3-yl]acetonitrile] | 90 | 16 | 179 | > 10000
Cn1cc(-c2cc3ncccc3c(-c3cc(C4(CC#N)CN(CC#N)C4)no3)n2)cn1 [Example 282] | 45 | 60 | 219 | > 10000
CS(=O)(=O)N1CC(CC#N)(n2ccc(-c3cc(-c4cc[nH]n4)cc4ncccc34)n2)C1 [Example 283, [1-(methylsulfonyl)-3-{3-[7-(1H-pyrazol-3-yl)quinolin-5-yl]-1H-pyrazol-1-yl}azetidin-3-yl]acetonitrile] | 2000 | 176 | 5670 | > 10000
CS(=O)(=O)N1CC(CC#N)(n2ccc(-c3cc(-c4cn[nH]c4)cc4ncccc34)n2)C1 [Example 284, [1-(methylsulfonyl)-3-{3-[7-(1H-pyrazol-4-yl)quinolin-5-yl]-1H-pyrazol-1-yl}azetidin-3-yl]acetonitrile] | 2500 | 171 | 6830 | > 10000
Cn1cc(-c2cc(-c3ccn(C4(CC#N)CN(CC(F)(F)F)C4)n3)c3cccnc3c2)cn1 [Example 285, [3-{3-[7-(1-methyl-1H-pyrazol-4-yl)quinolin-5-yl]-1H-pyrazol-1-yl}-1-(2,2,2-trifluoroethyl)azetidin-3-yl]acetonitrile] | 2950 | 342 | > 10000 | > 10000
Cn1cc(-c2cc(-c3ccn(C4(CC#N)CN(S(C)(=O)=O)C4)n3)c3cccnc3c2)cn1 [Example 286, [3-{3-[7-(1-methyl-1H-pyrazol-4-yl)quinolin-5-yl]-1H-pyrazol-1-yl}-1-(methylsulfonyl)azetidin-3-yl]acetonitrile] | 1810 | 212 | > 10000 | > 10000
CS(=O)(=O)N1CC(CC#N)(n2ccc(-c3cc(-c4ccc(=O)[nH]c4)cc4ncccc34)n2)C1 [Example 287, [1-(methylsulfonyl)-3-{3-[7-(6-oxo-1,6-dihydropyridin-3-yl)quinolin-5-yl]-1H-pyrazol-1-yl}azetidin-3-yl]acetonitrile] | 5380 | 201 | > 10000 | > 10000
CS(=O)(=O)N1CC(CC#N)(n2cc(-c3cc(-c4cc[nH]n4)cc4ncccc34)cn2)C1 [Example 288, [1-(methylsulfonyl)-3-{4-[7-(1H-pyrazol-3-yl)quinolin-5-yl]-1H-pyrazol-1-yl}azetidin-3-yl]acetonitrile] | 336 | 112 | 796 | > 10000
CS(=O)(=O)N1CC(CC#N)(n2cc(-c3cc(-c4cn[nH]c4)cc4ncccc34)cn2)C1 [Example 289, [1-(methylsulfonyl)-3-{4-[7-(1H-pyrazol-4-yl)quinolin-5-yl]-1H-pyrazol-1-yl}azetidin-3-yl]acetonitrile] | 525 | 197 | 1530 | > 10000
